Test results reported in a melting point compilation (Tetko et al.; mined from patent text by program, amines drawn as free bases though some values may be those of a salt).

| SMILES | melting point [°C] |
| --- | --- |
| CCCCc1oc2ccccc2c1C(=O)Nc1ccc2cc(OCc3nn[nH]n3)ccc2c1 | 194 to 198 |
| Cc1c(C=O)c2cnnc(OCc3ccccc3)c2n1Cc1ccccc1 | 147 to 149 |
| Oc1cncc(CCCOc2cccnc2Oc2cccc(Cl)c2)c1 | 148 to 149 |
| CN1CCC(c2c[nH]c3ccc(O[Si](C)(C)C(C)(C)C)cc23)CC1 | 191 to 195 |
| N#Cc1cnn(-c2ccc(Cl)c(Cl)c2Cl)c1NC(=O)CCCCl | 173 to 174 |
| Cc1cccc(Nc2ncnc3cnc(NC4CCN(C#N)CC4)nc23)c1 | 178 to 181 |
| CCCCCCN1CCN(Cc2ccc([N+](=O)[O-])cc2)C(=O)C1=O | 115 to 117 |
| CC(C)c1cc(C=CC(=O)Nc2cccc(C(=O)O)c2)oc1C(C)C | 220 to 222 |
| Nc1cc2c(Nc3ccc(OCc4ccccn4)c(Cl)c3)ncnc2cn1 | 247 to 250 |
| c1cc(-c2nc3cc4[nH]cnc4cc3[nH]2)ccn1 | > 280 |
| OCc1ccc(OCc2ccccc2)cc1OCc1ccccc1 | 84 to 85 |
| CCCCCCCNC(=O)Nc1ccccc1C(=O)NCC1CCN(C(c2ccccc2)c2ccccc2)CC1 | 146 to 148 |
| COCCOC12CC(CO)CN(C)C1Cc1c[nH]c3cccc2c13 (centres undefined) | 188 to 193 |
| Clc1cc(Cl)cc(C2=NOCCS2)c1 | 88 to 89 |
| O=C1C2CC3CC1CC(c1cc(Br)ccc1OCc1ccccc1)(C3)C2 | 163 to 165 |
| CCOC(=O)c1c(COC(C)=O)cccc1S(=O)(=O)NC(=O)Nc1nc(OC)cc(OC)n1 | 162 to 163 |
| CC1=NC(=CC(=CN(C)C)c2ccc(C)cc2[N+](=O)[O-])C(=O)O1 | 200 to 201 |
| Cc1ccc2c(NCc3ccc(NC(=O)C4CCN(Cc5ccccc5)CC4)cc3)nc(Cl)nc2c1 | 212 |
| c1ccc(CCn2cc3c(ncn4nc(-c5ccco5)nc34)n2)cc1 | 268 to 270 |
| NCC1CCN(c2nc3ccccc3[nH]2)CC1 | 136 to 138 |

| SMILES | melting point [°C] |
| --- | --- |
| COc1cc(C(C)C(=O)O)ccc1-c1ccc(F)cc1 (centres undefined) | 133 to 136 |
| CCCCCc1ccc(-c2nc(C)c(C(C)=NNC(=N)N)s2)cc1 | 210 |
| Cc1cc(Cl)nnc1-c1ccc(Br)cc1 | 197 to 200 |
| O=C(CN1C(=O)C2(COc3ccc(-c4cccnc4)cc32)c2ccccc21)Nc1ccccc1F (centres undefined) | 98 to 100 |
| CCOC(=O)c1cc2c(F)ccc(Br)c2s1 | 73 to 74 |
| CC(CN(C)C)N1c2ccccc2Sc2ccc(C(=O)NCc3cccs3)cc21 (racemic) | 135 |
| COc1cc2sc(C(=O)O)cc2c(Cl)c1OC | 267 to 270 |
| N[C@@H](Cc1ccccc1)C(=O)N1CCC[C@H]1C(=O)OCc1ccccc1 | 120 to 121 |
| CC1OCC(=O)N(C(=O)O)C1c1ccc(F)c(F)c1 (single isomer, unassigned; (+)) | 191 to 194 |
| CCOC(=O)C1CCc2c(oc3cc(NC(C)=O)ccc23)C1 (centres undefined) | 115 to 116 |
| CC1=C(c2nc(C)no2)C(c2cccc(Cl)c2Cl)C(c2nc(C)no2)=C(C)N1 | 227 to 229 |
| CCOC(=O)c1ncn2c1CN=C(c1ccccc1)c1cc(C#CC(C)(C)C)ccc1-2 | 155 to 156 |
| Cc1nc(N)c2nc(C)n(CCOCC#Cc3ccccc3)c2c1C | 187 to 188 |
| O=c1[nH]c2ccccc2cc1CN1CC=C(Cc2ccccc2)CC1 | 155 to 158 |
| NCc1ccccc1C1CCN(c2nc3c(cc2F)c(=O)c(C(=O)O)cn3C2CC2)C1 (centres undefined) | 226 to 228 |
| O=C1NC(=O)C(c2cn(CCCO)c3ccccc23)=C1c1ccccc1[N+](=O)[O-] | 193 to 195 |
| N#Cc1ccc(C2C(=O)N(Cc3ccc(F)cc3)Cc3cncn32)cc1 (centres undefined) | 132 to 135 |
| CCC1(CCCCCl)C(=O)Nc2c(C)cccc21 (centres undefined) | 112 to 113 |
| Cc1cc(C)n(C)c(=O)c1C(=O)O | 200 to 204 |
